Assay results taken from patent US5948913A, “Hydrate for drug use” (Daiichi Pharmaceutical Co., Ltd., priority 1994, dated 1999).
Structures can show the parent of a compound that is named as a salt. Where two headings read alike, the source gives them in different places.

How the values were obtained:
[1] = Weight / moisture change as a function of humidity; type: physicochemical
Experimental: On the other hand, when methanol was used as the solvent at the time of crystal precipitation, the thus obtained hydrochloride anhydrate of the compound of formula (1) also contained methanol, but it was able to remove the contained methanol almost completely when the crystals were dried with heating (120° C.) under a reduced pressure for several days or more.
(§1) (FIG. 2). Also, changes in its appearance were hardly found and its changes in the content (determination by HPLC) were not found under dry heating conditions (50° C., tightly sealed in a bottle, 1 month) or wet heating conditions (40° C., 75% humidity, 1 month).
FIG. 1 is a graph showing changes in the weight of 3-[2-[4-(3-chloro-2-methylphenyl)-1-piperazinyl]ethyl]-5,6-dimethoxy-1-(4- imidazolylmethyl)-1H-indazole hydrochloride anhydrate plotted as a function of humidity,
FIG. 2 is a graph showing changes in the weight of the 3.5-hydrate of the present invention plotted as a function of humidity, […]

[2] = Storage stability under dry heating and wet heating conditions; type: physicochemical
Experimental: as §1

[3] = test system: hippocampus CA1 nerve cells; test: Changes in hippocampus nerve cells in cerebral ischemia model; type: in vivo; details: jird, 5 minutes cerebral ischemia, 100 mg/kg oral 1 hour after ischemia loading
Experimental: When transient cerebral ischemia is loaded on a jird, hippocampus nerve cells start to get necrosis several days thereafter, and such a change is called delayed nerve cell death. The following test was carried out in accordance with the method of T. Kirino (Brain Res., 239, 57-69 (1982)). That is, each jird was loaded with 5 minutes of cerebral ischemia and then sacrificed to count the number of nerve cells remained in the hippocampus CA1 region.

[4] = test system: dogs; test: Actions upon hemodynamics and electrocardiogram; type: in vivo, dog
Experimental: (§2) Particularly serious actions upon hemodynamics and electrocardiogram were not observed in dogs, and significant central nervous inhibition actions were not observed in rhesus monkeys even when a dose of 10 mg/kg was administered by intravenous injection.

[5] = test system: rats; details: rat, in vivo
Experimental: (§3) With regard to the toxicity, its oral single administration toxicity was 200 mg/kg or more, and serious side effects were not observed in rats by repeated oral administration toxicity test over 10 days and repeated intravenous injection toxicity test over 10 days.

[6] = in vivo
Experimental: as §3

[7] = target: calmodulin-dependent phosphodiesterase (PDE); test: Calmodulin inhibition action (calmodulin-dependent phosphodiesterase inhibition); type: biochemical; details: CaM and CaM-PDE of bovine brain origin, [3H]-cGMP, 30° C., 10 minutes; read-out: PDE inhibition effect, IC50
[8] = test system: rhesus monkeys; test: Central nervous inhibition actions; type: in vivo, rhesus monkey; details: 10 mg/kg intravenous injection
Experimental: as §2

[9] = test system: mouse nitrogen-loaded hypoxia model; test: Mouse nitrogen-loaded hypoxia model; type: in vivo; details: mice, 30 mg/kg oral, 60 minutes before nitrogen gas feeding
Experimental: This test was carried out in accordance with the method of Albert Wauquier et al. (Japan J. Pharmacol., 38, 1-7 (1985)).
A total of 9 to 10 mice were used in 1 group, and each animal 60 minutes after oral administration of a drug to be tested (30 mg/kg) was put into a transparent container (500 ml capacity) equipped with an air outlet and then the container was fed with nitrogen gas at a rate of 5.0 L/min. The period of time from the commencement of gas feeding until respiratory arrest was measured.

[10] = test system: rat microsphere cerebral embolus model; test: Anti-edema effect in rat microsphere cerebral embolus model; type: in vivo; details: 8 hr, intravenous infusion, 24 hours after operation
Experimental: This test was carried out in accordance with the method of Nobutaka Demura et al. (Neuroscience Res., 17, 23-30 (1983)).
Under halothane anesthesia, a Slc;Wis rat (about 300 g) which has been treated with caudal vein cannulation in advance was subjected to neck incision to tear off the left side common carotid artery. Wing process palate artery and external carotid artery on the same side were also torn off and subjected to artery clipping. Carbon microspheres (50±10 μm in diameter) were suspended in 20% dextran and injected into the left side common carotid artery to effect dispersion of the microspheres in the left cerebral hemisphere via the left internal carotid artery, the common carotid artery was immediately clipped to stop bleeding from the microsphere-injected part, and then the artery clip was removed to restart blood circulation. Thereafter, each drug solution was continuously injected using an infusion pump from the catheter which has been inserted into caudal vein.
Each animal was sacrificed by decapitation 24 hours after the operation, and the brain was excised immediately after the decapitation to measure wet weights of both left and right hemispheres. Each tissue was then dried overnight at 150° C. to measure its dry weight and to calculate water content of each hemisphere.
As a control group, a vehicle group (20% dextran only) was arranged and treated in the same manner.

[11] = dry heating conditions (50° C., tightly sealed in a bottle, 1 month)
[12] = wet heating conditions (40° C., 75% humidity, 1 month)

COc1cc2c(CCN3CCN(c4cccc(Cl)c4C)CC3)nn(Cc3c[nH]cn3)c2cc1OC [Inventive Example 2, 3-[2-[4-(3-Chloro-2-methylphenyl)-1-piperazinyl]ethyl]-5,6-dimethoxy-1-(4-imidazolylmethyl)-1H-indazole 1.5-hydrochloride (anhydrous crystals)]
moisture absorption in response to environmental humidity ([1]; room temperature, anhydrate after removal of methanol, FIG. 1): absorb moisture in response to the environmental humidity

COc1cc2c(CCN3CCN(c4cccc(Cl)c4C)CC3)nn(Cc3c[nH]cn3)c2cc1OC [Inventive Example 3, 3-[2-[4-(3-Chloro-2-methylphenyl)-1-piperazinyl]ethyl]-5,6-dimethoxy-1-(4-imidazolylmethyl)-1H-indazole dihydrochloride 3.5-hydrate]
changes in appearance [2, 11]: hardly found | changes in the content (determination by HPLC) [2, 11]: not found | changes in appearance [2, 12]: hardly found | changes in the content (determination by HPLC) [2, 12]: not found | changes in powder X-ray diffraction pattern or detectable water content ([1]; relative humidity changed from about 20% to about 80% at 25° C., FIG. 2): did not show changes

COc1cc2c(CCN3CCN(c4cccc(Cl)c4C)CC3)nn(Cc3c[nH]cn3)c2cc1OC [compound of the present invention, 3-[2-[4-(3-chloro-2-methylphenyl)-1-piperazinyl]ethyl]-5,6-dimethoxy-1-(4-imidazolylmethyl)-1H-indazole]
protecting effect against nerve cell death [3]: distinct protecting effect | Hippocampus Nerve Cell Density ([3]; CA1 region): 131 ± 21.2 cells/mm | particularly serious actions upon hemodynamics and electrocardiogram [4]: not observed | serious side effects ([5]; iv): not observed | serious side effects ([5]; po): not observed | oral single administration toxicity [6]: ≥ 200 mg/kg | IC50 [7]: 5.46 µM | significant central nervous inhibition actions [8]: not observed | increasing ratio of time until respiratory arrest (control group defined as 100%) [9]: 15.1% | Water content, Control Side (right hemisphere) ([10]; dose 1 mg/kg/hr): 78.8 ± 0.1% | Water content, Disease Side (left hemisphere) ([10]; dose 1 mg/kg/hr): 80.1 ± 0.4% | Water content, Control Side (right hemisphere) ([10]; dose 2 mg/kg/hr): 78.7 ± 0.1% | Water content, Disease Side (left hemisphere) ([10]; dose 2 mg/kg/hr): 79.8 ± 0.3%
